Laboratory results from paper PMC7181660, “A novel specific PERK activator reduces toxicity and extends survival in Huntington's disease models” (Scientific Reports, 2020).
Read-outs that look alike come from different tables or passages of the source.

How the values were obtained:
[1] = target: panel of 391 kinases (Homo sapiens, UniProt P41240); test: biochemical; type: biochemical; details: CSK, MK-28 1 µM, ATP 1 µM
[2] = target: panel of 391 kinases (Homo sapiens, UniProt Q8TDC3); test: biochemical; type: biochemical; details: BRSK1, MK-28 1 µM, ATP 1 µM
[3] = target: panel of 391 kinases (Homo sapiens, UniProt P19525); test: biochemical; type: biochemical; details: kinase EIF2AK2, compound at 1 µM, single dose in duplicates, 1 µM ATP
[4] = target: panel of 391 kinases (Homo sapiens, UniProt Q15303); test: biochemical; type: biochemical; details: ERBB4/HER4, MK-28 1 µM, ATP 1 µM
[5] = target: panel of 391 kinases (Homo sapiens, UniProt Q9H2G2); test: biochemical; type: biochemical; details: SLK/STK2, MK-28 1 µM, ATP 1 µM
[6] = target: panel of 391 kinases (Homo sapiens, UniProt P51956); test: biochemical; type: biochemical; details: NEK3, MK-28 1 µM, ATP 1 µM
[7] = target: panel of 391 kinases (Homo sapiens, UniProt Q06187); test: biochemical; type: biochemical; details: BTK, MK-28 1 µM, ATP 1 µM
[8] = target: panel of 391 kinases (Homo sapiens, UniProt P15056); test: biochemical; type: biochemical; details: BRAF, MK-28 1 µM, ATP 1 µM
[9] = target: panel of 391 kinases (Homo sapiens, UniProt Q52WX2); test: biochemical; type: biochemical; details: SBK1, MK-28 1 µM, ATP 1 µM
[10] = target: panel of 391 kinases (Homo sapiens, UniProt Q6DT37); test: biochemical; type: biochemical; details: DMPK2, MK-28 1 µM, ATP 1 µM
[11] = target: panel of 391 kinases (Homo sapiens, UniProt Q9UM73); test: biochemical; type: biochemical; details: ALK, MK-28 1 µM, ATP 1 µM
[12] = target: panel of 391 kinases (Homo sapiens, UniProt Q9UQB9); test: biochemical; type: biochemical; details: Aurora C, MK-28 1 µM, ATP 1 µM
[13] = target: panel of 391 kinases (Homo sapiens, UniProt Q8N568); test: biochemical; type: biochemical; details: DCAMKL2, MK-28 1 µM, ATP 1 µM
[14] = target: panel of 391 kinases (Homo sapiens, UniProt Q15349); test: biochemical; type: biochemical; details: RSK3, MK-28 1 µM, ATP 1 µM
[15] = target: panel of 391 kinases (Homo sapiens, UniProt Q5TCX8); test: biochemical; type: biochemical; details: MLK4, MK-28 1 µM, ATP 1 µM
[16] = target: panel of 391 kinases (Homo sapiens, UniProt Q13131); test: biochemical; type: biochemical; details: compound at 1 µM, single dose in duplicates, 1 µM ATP; for remaining activity at 1 µM: read-out: % Enzyme Activity (relative to DMSO controls)
[17] = target: panel of 391 kinases (Homo sapiens, UniProt O95747); test: biochemical; type: biochemical; details: OSR1/OXSR1, MK-28 1 µM, ATP 1 µM
[18] = target: panel of 391 kinases (Homo sapiens, UniProt Q13163); test: biochemical; type: biochemical; details: MEK5, MK-28 1 µM, ATP 1 µM
[19] = target: panel of 391 kinases (Homo sapiens, UniProt O43293); test: biochemical; type: biochemical; details: kinase ZIPK/DAPK3, compound at 1 µM, single dose in duplicates, 1 µM ATP
[20] = target: panel of 391 kinases (Homo sapiens, UniProt Q86UX6); test: biochemical; type: biochemical; details: STK32C/YANK3, MK-28 1 µM, ATP 1 µM
[21] = target: panel of 391 kinases (Homo sapiens, UniProt P16591); test: biochemical; type: biochemical; details: FER, MK-28 1 µM, ATP 1 µM
[22] = target: panel of 391 kinases (Homo sapiens, UniProt P37023); test: biochemical; type: biochemical; details: ALK1/ACVRL1, MK-28 1 µM, ATP 1 µM
[23] = target: panel of 391 kinases (Homo sapiens, UniProt P30291); test: biochemical; type: biochemical; details: WEE1, MK-28 1 µM, ATP 1 µM
[24] = Pharmacokinetics and BBB penetration after single IP injection; type: in vivo; details: mice, single IP 10 mg/kg
[25] = read-out: % Enzyme Activity (relative to DMSO controls)

## CN(/N=C\c1ccc(O)c(O)c1)c1nc(-c2ccccc2)cc(-c2ccccc2)n1 [MK-28]
[1]
  % Enzyme Activity (relative to DMSO controls): 96.35%
[1]; [25]
  remaining activity at 1 µM: 96.9%
[2]
  % Enzyme Activity (relative to DMSO controls): 90.51%
[2]; [25]
  remaining activity at 1 µM: 92.8%
[3]
  % Enzyme Activity (relative to DMSO controls): 97.81%
[3]; [25]
  remaining activity at 1 µM: 99%
[4]
  % Enzyme Activity (relative to DMSO controls): 97.84%
[4]; [25]
  remaining activity at 1 µM: 99.3%
[5]
  % Enzyme Activity (relative to DMSO controls): 100.63%
[5]; [25]
  remaining activity at 1 µM: 102%
[6]
  % Enzyme Activity (relative to DMSO controls): 77.47%
[6]; [25]
  remaining activity at 1 µM: 79.2%
[7]
  % Enzyme Activity (relative to DMSO controls): 85.19%
[7]; [25]
  remaining activity at 1 µM: 85.4%
[8]
  % Enzyme Activity (relative to DMSO controls): 99.64%
[8]; [25]
  remaining activity at 1 µM: 101%
[9]
  % Enzyme Activity (relative to DMSO controls): 97.75%
[9]; [25]
  remaining activity at 1 µM: 97.8%
[10]
  % Enzyme Activity (relative to DMSO controls): 101.16%
[10]; [25]
  remaining activity at 1 µM: 106%
[11]
  % Enzyme Activity (relative to DMSO controls): 82.73%
[11]; [25]
  remaining activity at 1 µM: 82.8%
[12]
  % Enzyme Activity (relative to DMSO controls): 93.97%
[12]; [25]
  remaining activity at 1 µM: 95.6%
[13]
  % Enzyme Activity (relative to DMSO controls): 121.14%
[13]; [25]
  remaining activity at 1 µM: 122%
[14]
  % Enzyme Activity (relative to DMSO controls): 100.80%
[14]; [25]
  remaining activity at 1 µM: 103%
[15]
  % Enzyme Activity (relative to DMSO controls): 96.53%
[15]; [25]
  remaining activity at 1 µM: 97.1%
[16]; kinase AMPK(A1/B1/G1)
  % Enzyme Activity (relative to DMSO controls): 95.82%
  remaining activity at 1 µM: 96.3%
[16]; kinase AMPK(A1/B1/G2)
  % Enzyme Activity (relative to DMSO controls): 98.77%
  remaining activity at 1 µM: 101%
[16]; kinase AMPK(A1/B1/G3)
  % Enzyme Activity (relative to DMSO controls): 86.51%
  remaining activity at 1 µM: 87%
[16]; kinase AMPK(A1/B2/G1)
  % Enzyme Activity (relative to DMSO controls): 106.30%
  remaining activity at 1 µM: 108%
[17]
  % Enzyme Activity (relative to DMSO controls): 101.98%
[17]; [25]
  remaining activity at 1 µM: 105%
[18]
  % Enzyme Activity (relative to DMSO controls): 100.81%
[18]; [25]
  remaining activity at 1 µM: 105%
[19]
  % Enzyme Activity (relative to DMSO controls): 79.41%
[19]; [25]
  remaining activity at 1 µM: 79.9%
[20]
  % Enzyme Activity (relative to DMSO controls): 104.62%
[20]; [25]
  remaining activity at 1 µM: 112%
[21]
  % Enzyme Activity (relative to DMSO controls): 101.21%
[21]; [25]
  remaining activity at 1 µM: 102%
[22]
  % Enzyme Activity (relative to DMSO controls): 91.36%
[22]; [25]
  remaining activity at 1 µM: 94.7%
[23]
  % Enzyme Activity (relative to DMSO controls): 112.80%
[23]; [25]
  remaining activity at 1 µM: 114%
[24]
  time of Cmax in plasma after injection: 40 min
  time of Cmax in the brain after injection: 40 min
[24]; mouse, brain, read-out: AUC in the brain as % of that in the plasma
  Kp: 0.22
[24]; mouse, brain, read-out: Cmax in the brain
  Cmax: 57 ng/g
[24]; mouse, brain, read-out: half-life in the brain
  half-life: 80 min
[24]; mouse, plasma, read-out: Cmax in plasma
  Cmax: 105 ng/mL
[24]; mouse, plasma, read-out: half-life in plasma
  half-life: 30 min
